This is an account of results in paper PMC8725855 (Journal of Enzyme Inhibition and Medicinal Chemistry, 2021).

In one series the test system is A549 cells. In words: Cytotoxicity in A549 cells in the presence of biotin (biotin receptor competition). The series is classed as cell-based, human. The protocol:
To explore the contribution of biotin receptor to the transport of biotin conjugates, Deac-SS-Biotin (9) and biotin were evaluated for the antiproliferative activity against A549 cells.
Figure 6. In vitro cytotoxicity of biotin, Deac (13), and Deac-SS-Biotin (9) in A549 cells. Cytotoxicity of biotin, Deac + biotin, and Deac-SS-Biotin + biotin in A549 cells (n = 3).
(§1) 24 h later, triplicate wells were treated with media and the compounds being tested. After 72 h of incubation at 37 °C in 5% CO2, the drug-containing medium was removed and replaced with […] of fresh medium containing 5 mg/mL MTT solution. After 4 h of incubation, the medium with MTT was removed, and […] of dimethyl sulfoxide (DMSO) was added to each well. The plates were gently agitated until the purple formazan crystals were dissolved, and the OD490 values were determined using a microplate reader (MK3, Thermo, Germany). The data were calculated and plotted as the percent viability compared to the control.

For the next series, the target named is porcine brain tubulin (Sus scrofa, UniProt P02550+P02554). The protocol:
To examine the biological mechanism of biotin conjugates, Deac-SS-Biotin (9) was evaluated for its effects on tubulin polymerisation (Figure 7).
Figure 7. The effect of Deac-SS-Biotin (9) on tubulin polymerisation. […] The reaction was monitored at 37 °C.
First, 96-well plate was incubated with […] of inhibitors in various concentrations at 37 °C for 1 min. Then […] of the tubulin reaction mix was added. The samples were mixed well, and tubulin assembly was monitored (emission wavelength of 420 nm; excitation wavelength pf 360 nm) at 1 min intervals for 90 min at 37 °C using a plate reader (FAS-Calibur, BD Biosciences, USA).

Series [1] relates to mouse fibroblasts L929 cells. The series is classed as cell-based. The settings on record: MTT, 72 h incubation, normal cells; read-out: IC50 (μM) ± SD L929. The protocol:
(§2) All cell lines were purchased from the American Type Culture Collection (ATCC, Manassas, VA)[29].
as §1

In series [2] the test system is cervical carcinoma HeLa cells. The series is classed as cell-based, human. The settings on record: MTT, 72 h incubation; read-out: IC50 (μM) ± SD Hela. The protocol: as §2, §1
Series [3] has as its system gastric adenocarcinoma SGC-7901 cells. The format is cell-based, human. The settings on record: MTT, 72 h incubation; read-out: IC50 (μM) ± SD SGC-7901. The protocol: as §2, §1
Series [4] relates to lung adenocarcinoma A549 cells. The format is cell-based, human. As to conditions: MTT, 72 h incubation; read-out: IC50 (μM) ± SD A549. The protocol: as §2, §1
A short description of series [5]: In vitro release of Deac from biotin conjugates with DTT (HPLC). The format is physicochemical. The settings on record: 5 μM conjugate. The protocol:
To investigate the mechanism of GSH-triggered drug release, the in vitro drug release profiles of Deac-SS-Biotin (9) and Deac-Biotin (10) were investigated using DTT (Glutathione mimetic). As shown in Figure 5(A), almost none of Deac was released from Deac-SS-Biotin (9) within 24 h in blank PBS (pH 7.2–7.4, without DTT), and more than 70% of Deac was released within 8 h in the presence of 5, 10, and 20 μM DTT. By contrast, there was negligible Deac (<1.0%) released from Deac-Biotin (10) after 24 h incubation in the presence or absence of 20 μM DTT (Figure 5(B)). […] Furthermore, Deac release from the Deac-SS-Biotin (9) at 10 μM DTT was also investigated by HPLC analysis (Figure 5(C)). Free Deac-SS-Biotin (9) was eluted at 10.8 min in HPLC chromatogram. As 10 μM DTT was added to Deac-SS-Biotin (9), it was sheared by DTT. As chemical reaction involved, this scission was subjected to intramolecular cyclisation, followed by ring-forming condensation, resulting in the liberation of Deac. The peak at 14.3 min appeared accompanied by the disappearance of Deac-SS-Biotin (9), and well-matched with free Deac.
Figure 5. In vitro release of Deac from prodrugs. (A) Release profiles of Deac from Deac-SS-Biotin (9, 5 μM) with 0 μM, 5 μM, 10 μM and 20 μM DTT in PBS (pH 7.2–7.4) (n = 3). (B) Release profiles of Deac from Deac-Biotin (10, 5 μM) with 0 μM, 5 μM, 10 μM and 20 μM DTT in PBS (pH 7.2–7.4) (n = 3). (C) HPLC spectra of Deac-SS-Biotin (9, 5 μM) with 10 μM DTT at 0 and 24 h.
The release of Deac from Deac-SS-Biotin was studied in PBS (pH 7.2–7.4) containing 20% DMSO with 0, 5, 10, or 20 μM, dithiothreitol (DTT), respectively. Briefly, biotin-conjugates (5 μM) were incubated in 10 ml of release medium at 37 °C. At timed intervals, 0.1 ml of sample was withdrawn, and the content of Deac, Deac-Biotin, and Deac-SS-Biotin was determined by HPLC (HPLC-LC-20AT, Shimadzu using SPD-20A UV as the detector, C18 (4.6 × 250 mm, […]) as HPLC analysis column. Method: gradient: 45% methanol in water as mobile elution, flow rate: 1.0 ml min^-1). The UV detector was kept at 254 nm.

Series [6] can be described thus: Physiological stability by HPLC analysis. The format is physicochemical. As to conditions: 5 µM; water, PBS, and cell culture fluid; 72 h incubation, room temperature. The protocol: Figure 4. Stabilities of Deac-SS-Biotin (9, 5 µM) in water, and PBS cell culture fluid were investigated by HPLC analysis. (A) HPLC analysis of Deac-SS-Biotin (9) in water after incubation for and 72 h; (B) HPLC analysis of Deac-SS-Biotin (9) in PBS after incubation for and 72 h; (C) HPLC analysis of Deac-SS-Biotin (9) in cell culture fluid after incubation for and 72 h.
To 8 ml of water, PBS, or cell culture fluid, 2 ml of DMSO stock solution of Deac-SS-Biotin was added. The mixture was incubated with gentle shaking for 72 h at room temperature during which the mixture was measured by HPLC spectra.

In series [7] the test system is cells over-expressing active legumain (M38L, HCT116). As to conditions: HCT116 vs HEK293, M4C, SW620; cited from earlier work.

By cell viability is commonly meant the share of living cells, or the viability signal relative to a control. By IC50 is commonly meant the concentration needed to halve the response being measured.

Starred links: 1 amine or outer side, 2 acyl side, 3 side chain; linkers in the order of their positions; H or OH if unused. Suc = O=C(CCC(=O)[*:2])[*:1] Some results are limits rather than exact numbers.

Sequence of porcine brain tubulin (P02554 whole entry): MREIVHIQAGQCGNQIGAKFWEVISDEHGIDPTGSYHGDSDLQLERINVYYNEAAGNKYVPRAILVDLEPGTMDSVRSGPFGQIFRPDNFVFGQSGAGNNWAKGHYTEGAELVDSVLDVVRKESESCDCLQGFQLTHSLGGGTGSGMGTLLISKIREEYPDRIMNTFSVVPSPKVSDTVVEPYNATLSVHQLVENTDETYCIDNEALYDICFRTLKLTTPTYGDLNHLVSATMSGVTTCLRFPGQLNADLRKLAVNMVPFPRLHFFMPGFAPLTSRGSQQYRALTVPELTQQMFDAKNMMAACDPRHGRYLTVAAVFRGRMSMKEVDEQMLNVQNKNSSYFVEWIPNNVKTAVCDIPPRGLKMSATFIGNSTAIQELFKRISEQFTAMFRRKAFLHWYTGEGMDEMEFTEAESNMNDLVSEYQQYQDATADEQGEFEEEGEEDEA
Sequence of porcine brain tubulin (P02550 whole entry): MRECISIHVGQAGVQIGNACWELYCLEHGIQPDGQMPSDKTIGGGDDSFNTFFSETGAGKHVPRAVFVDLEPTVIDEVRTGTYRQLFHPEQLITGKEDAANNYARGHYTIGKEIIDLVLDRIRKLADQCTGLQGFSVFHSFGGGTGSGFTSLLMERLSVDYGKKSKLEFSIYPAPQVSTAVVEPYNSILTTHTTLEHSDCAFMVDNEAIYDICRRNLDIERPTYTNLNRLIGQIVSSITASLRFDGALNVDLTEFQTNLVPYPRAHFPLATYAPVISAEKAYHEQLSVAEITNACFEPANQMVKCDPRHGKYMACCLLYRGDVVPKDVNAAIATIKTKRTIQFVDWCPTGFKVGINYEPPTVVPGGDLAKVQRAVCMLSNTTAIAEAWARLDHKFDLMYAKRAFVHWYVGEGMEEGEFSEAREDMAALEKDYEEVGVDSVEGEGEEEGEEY

As for “2-((2-((((S)-2,3,4,10-tetramethoxy-9-oxo-5,6,7,9-tetrahydrobenzo[a]heptalen-7-yl)carbamoyl)oxy)ethyl)disulfanyl)ethyl 5-((3aS,4S,6aR)-2-oxohexahydro-1H-thieno[3,4-d]imidazol-4-yl)pentanoate [Compound 9]”, the cell viability in the series with A549 cells (A549, compound at 2-fold IC50, biotin 0.075 μM) is listed as 23.6%; in the series with A549 cells (A549, compound at 2-fold IC50, biotin 0.60 μM), 68.9%; with A549 cells (A549, compound at 2-fold IC50, in the absence of biotin), 17.7%. For the same compound, on porcine brain tubulin (compound at 5 µM and DTT at 10 µM), the “anti-tubulin polymerisation activity after coincubation with DTT” value is “strong anti-tubulin polymerisation activity”. In addition, the “inhibition activity on tubulin polymerisation” value against porcine brain tubulin (compound at 5 µM, without DTT) was “weak inhibition activity”. Also, the IC50 in [1] amounted to 4.22 ± 0.102 µM; in [2], 0.108 ± 0.01 µM; in series [3] it was 0.124 ± 0.011 µM; in series [4], 0.085 ± 0.008 µM. Also, the Deac released result in series [5] (PBS pH 7.2–7.4, in the presence of 5, 10, and 20 μM DTT, within 8 h, 37 °C) is “more than 70%”; in series [5] (blank PBS (pH 7.2–7.4, without DTT), within 24 h, 37 °C) it was “almost none”. Further, the “peak area and peak height (HPLC stability)” value in [6] is recorded as “nearly remained unchanged”.
For the compound “2-((2-oxo-2–(2-(5-((3aS,4S,6aR)-2-oxohexahydro-1H-thieno[3,4-d]imidazol-4-yl)pentanoyl)hydrazinyl)ethyl)thio)-N-((S)-2,3,4,10-tetramethoxy-9-oxo-5,6,7,9-tetrahydrobenzo[a]heptalen-7-yl)acetamide [Compound 11c]”, the IC50 worked out at 10.7 ± 0.2 µM in series [1], 2.17 ± 0.1 µM in [2], 1.95 ± 0.071 µM in series [3] and 1.31 ± 0.092 µM in series [4].
Taken in the same sequence, the figures for “4-oxo-4–(2-(5-((3aS,4S,6aR)-2-oxohexahydro-1H-thieno[3,4-d]imidazol-4-yl)pentanoyl)hydrazinyl)-N-((S)-2,3,4,10-tetramethoxy-9-oxo-5,6,7,9-tetrahydrobenzo[a]heptalen-7-yl)butanamide [Compound 11a]” were above 20 µM, 3.5 ± 0.15 µM, 7.52 ± 0.12 µM and 6.52 ± 0.19 µM.
As to “5-((3aS,4S,6aR)-2-oxohexahydro-1H-thieno[3,4-d]imidazol-4-yl)-N-((S)-2,3,4,10-tetramethoxy-9-oxo-5,6,7,9-tetrahydrobenzo[a]heptalen-7-yl)pentanamide [Compound 10]”, the IC50 in series [1] stood at 15.8 ± 0.31 µM; in series [2], 6.35 ± 0.11 µM; in [3] it was 4.9 ± 0.18 µM; in series [4] it was 4.85 ± 0.13 µM. Also, in [5] (PBS pH 7.2–7.4, after 24 h incubation in the presence or absence of 20 μM DTT), the Deac released is below 1.0%.
Turning to “5-oxo-5–(2-(5-((3aS,4S,6aR)-2-oxohexahydro-1H-thieno[3,4-d]imidazol-4-yl)pentanoyl)hydrazinyl)-N-((S)-2,3,4,10-tetramethoxy-9-oxo-5,6,7,9-tetrahydrobenzo[a]heptalen-7-yl)pentanamide [11 b]”, the IC50 in series [1] stood at 13.4 ± 0.18 µM; in [2], 6.94 ± 0.16 µM; in [3], 2.29 ± 0.09 µM; in series [4], 2.23 ± 0.12 µM.
For “5: legumain-cleavable peptide (Suc-Ala-Ala-Asn-Val)-colchicine (Suc-AANV-colchicine) [Compound 5]”, in series [7], the “toxicity to cells over-expressing active legumain compared to cells expressing low levels of active or only prolegumain” value is listed as “more toxic”.
On to `O=C(O)CCCC[C@@H]1SC[C@@H]2NC(=O)N[C@@H]21` [biotin, reference compound], for which the cytotoxicity alone result in the series on A549 cells (A549, biotin alone at various concentrations) is listed as “no cytotoxicity”.
